Measurements published in US20260315446A1, “ANTIFUNGAL COMPOUNDS AND USES THEREOF” (priority 2023, published 2026).
Entries after “also recorded” stand apart in the source; their conditions may differ.

How the values were obtained:
[1] = tested on: germinal center (GC) B cells; assay: In vivo immunosuppression, germinal center B cells (Example 1); design: species or system mouse (C57BL/6); details: daily i.p., FK506 5 mg/kg or JH-FK-05 60 mg/kg; day 7
Description: Based on the in vitro evidence of reduced immunosuppressive activity of JH-FK-05, it was hypothesized that this reduction would translate into reduced immunosuppression in an in vivo model. The murine model for immunosuppression measures the T cell-dependent proliferation of two immune cell subtypes in response to immunization with an antigen. Animals were treated daily via intraperitoneal (i.p.) injection with vehicle, 5 mg/kg FK506, or 60 mg/kg JH-FK-05, beginning on day −1 and ending on day 7. […] On day 0, animals were immunized with NP-OVA to stimulate T cell-dependent signaling that would result in proliferation of T follicular helper (Tfh) cells and germinal center (GC) B cells. Animals were sacrificed on day 7, and the proportions of Tfh and GC B cells in the lymph nodes were measured. […]
Groups of 6 female C57BL/6 mice (Jackson Laboratory) were treated daily by intraperitoneal (i.p.) injection with about 100 μL vehicle, 5 mg/kg FK506, or 60 mg/kg JH-FK-05 beginning on day −1. […] Mice were treated and monitored daily until they were sacrificed on day 7. Draining lymph nodes were harvested on day 7, and the populations of T follicular helper cells and GC B cells were analyzed by flow cytometry. Tfh and GC B cells were measured from T Cell Receptor β (TCRβ^+) CD4^+CD44^hi cells and TCRβ^−CD19^+ cells, respectively.

[2] = tested on: T follicular helper (Tfh) cells; assay: In vivo immunosuppression, T follicular helper cells (Example 3); details: 8 days
Description: The in vivo immunosuppressive effect of JH-FK-08 was assessed by studying T follicular helper (Tfh) cell production in mice. Tfh cells play a role in protection against and response to fungal infections (see, Wong G K, et al., 1998. J Antibiot 51:487-491; Cruz M C, et al., 1999. Mol Cell Biol 19:4101-4112). For this study, immunocompetent C57BL/6 mice received 8 days of twice-daily dosing of vehicle, FK506 (2.5 mg/kg), or JH-FK-08 (20 or 40 mg/kg). Twenty-four hours after the first dose, mice were immunized with NP-OVA to induce an immune response. Cells were analyzed 7 days post immunization, and cell types were analyzed by flow cytometry (FIG. 15B).
Cell surface staining of single cell suspensions was performed in staining buffer (PBS supplemented with 2 mM EDTA and 0.5% BSA). Anti-FcγR (93; Biolegend) was treated to block the Fe receptor before surface staining of primary cells isolated from lymph nodes of NP-OVA-immunized mice. Cells were stained with fixable viability dye (eBioscience) before surface staining to exclude dead cells from analysis. For the detection of intracellular cytokines, cells were additionally incubated with phorbol 12-myristate 13-acetate and ionomycin in the presence of GolgiStop (BD Biosciences) during the final 4 h of incubation. For intracellular staining, cells were fixed and permeabilized with Fixation/Permeabilization Buffer (eBioscience). Flow cytometric analysis was performed utilizing BD FACSCantoII or BD LSRFortessaX20 (BD Biosciences) and FlowJo software (BD Biosciences).
Groups of five female C57BL/6 mice were treated twice daily for 8 days with vehicle, FK506 (2.5 mg/kg), JH-FK-08 (20 mg/kg), or JH-FK-08 (40 mg/kg) via i.p. injection. Twenty-four hours after the first dose, animals were immunized with NP-OVA (100 μg) in alum via subcutaneous injection. Seven days post immunization, mice were sacrificed, and draining lymph nodes were harvested for the analysis of Tfh cells and GC B cells by flow cytometry.

C. neoformans strain H99 [3] = assay: Murine cryptococcal infection, spleen fungal burden (Example 3); type: in vivo, Cryptococcus neoformans in A/J mice; details: 14 days; fluconazole 6 mg/kg, JH-FK-08 40 mg/kg, i.p. twice per day
Description: In vivo antifungal activity and therapeutic benefit were assayed by investigating the impact of the FK520 analog on organ fungal burden during cryptococcosis. Specifically, the in vivo efficacy of JH-FK-08 on fungal burden was assessed using A/J female mice. Immunodeficient A/J mice were selected in part due to their defect in complement component five and their susceptibility to cryptococcal infection. Treatment groups included vehicle of 10% Kolliphor: ethanol (1:1) in phosphate-buffered saline (PBS), 6 mg/kg fluconazole, 40 mg/kg JH-FK-08, or the fluconazole and JH-FK-08 combination, all given via intraperitoneal (i.p.) injection twice per day beginning at 4 hours post infection. […] Mice were intranasally infected with C. neoformans strain H99, and fungal burden in the lung, spleen, and brain was assessed after 14 days of treatment.
C. neoformans inoculum was prepared by growing a 5-mL overnight YPD culture spinning in a tissue culture roller drum at 30° C. Cells were pelleted by centrifugation and washed in sterile PBS three times. Cell density was determined by hemocytometer, and cells were diluted to 2×10^6 cells/mL. Mice (10 to 20 g) were infected with 10^5 cells of C. neoformans H99. […] Following inhalation of the inoculum, animals were monitored for post anesthesia recovery. […] Fungal burden was assessed 24 h after the final dose. […]

C. neoformans strain H99 [4] = assay: Survival during cryptococcal infection (Example 3); type: in vivo, Cryptococcus neoformans in A/J mice
Description: Finally, whether the antifungal efficacy translates into extended survival during infection was assessed. To test the impact of treatment on survival, murine survival was monitored in the cryptococcosis infection model. Following the same protocol of infection and dosing as in the fungal burden experiment, animal survival was monitored following infection and 2 weeks of intraperitoneal dosing. Fluconazole treatment extended median survival from 16 to 27 days.
C. neoformans inoculum was prepared by growing a 5-mL overnight YPD culture spinning in a tissue culture roller drum at 30° C. Cells were pelleted by centrifugation and washed in sterile PBS three times. Cell density was determined by hemocytometer, and cells were diluted to 2×10^6 cells/mL. Mice (10 to 20 g) were infected with 10^5 cells of C. neoformans H99. For inhalation infection, animals were anesthetized with isoflurane before 50 μL of inoculum was pipetted onto the upright nasal passages of each animal. Following inhalation of the inoculum, animals were monitored for post anesthesia recovery. Treatment of animals began 4 hours post infection and was continued for 14 days. Fungal burden was assessed 24 h after the final dose.
For survival curve analysis, animals were monitored until reaching defined humane end points, including social isolation, hunched posture, weight loss, lack of grooming, and labored breathing, and were then euthanized via CO2 inhalation. For fungal burden analysis, mice were euthanized following 2 weeks of treatment with a designated antifungal, vehicle, or combination. Brain, lung, and spleen were harvested from animals, weighed, and homogenized in sterile PBS using steel beads and a bead beater. Each organ homogenate was serially diluted 10-fold to 10-4 in PBS. One hundred microliters of each dilution was plated on YPD plates supplemented with YPD 50 μg/mL ampicillin and 30 μg/mL chloramphenicol, incubated at 30° C. for 2 days, and assessed for colony-forming units. CFU per organ weight was calculated and plotted using GraphPad Prism 9.

Row | SMILES | proliferation/presence of GC B cells [1] | production of Tfh cells ([2]; FK506 2.5 mg/kg i.p. twice daily, 2.5 mg/kg) | production of Tfh cells ([2]; JH-FK-08 20 mg/kg i.p. twice daily) | production of Tfh cells ([2]; JH-FK-08 40 mg/kg i.p. twice daily) | spleen fungal burden (C. neoformans strain H99 [3]) | survival compared to vehicle/untreated (C. neoformans strain H99 [4]; 2 weeks twice daily i.p. 40 mg/kg, 40 mg/kg) | median survival (C. neoformans strain H99 [4]; 2 weeks twice daily i.p., fluconazole 6 mg/kg, JH-FK-08 40 mg/kg, vehicle 16 days) [days] | combination effect with fluconazole (C. neoformans strain H99 [4]; in vivo)
1 | C=CCC1C=C(C)CC(C)CC(OC)C2OC(O)(C(=O)C(=O)N3CCCCC3C(=O)OC(C(C)=CC3CCC(O)C(OC)C3)C(C)C(O)CC1=O)C(C)CC2OC (stereo not drawn) [FK506, reference compound] | significantly reduced the proliferation | significantly reduced; also recorded: significantly inhibits Tfh cell production at 1/16 of the dose of JH-FK-08 |  |  |  |  |  | 
2 | CC[C@@H]1/C=C(\C)C[C@H](C)C[C@H](OC)[C@H]2O[C@@](O)(C(=O)C(=O)N3CCCC[C@H]3C(=O)O[C@H](/C(C)=C/C3CC[C@@H](O)[C@H](OC)C3)[C@H](C)[C@@H](O)C/C1=N/NC(=O)OC)[C@H](C)C[C@@H]2OC (stereo partly drawn) [JH-FK-08] |  |  | no significant effect on the percent of Tfh cells produced compared to vehicle | production of Tfh cells was reduced | no detectable fungal burden | more than doubled median survival; also recorded: more than double murine survival time | 33 | additive activity in combination with fluconazole in vivo
3 | CC[C@@H]1/C=C(\C)C[C@H](C)C[C@H](OC)[C@H]2O[C@@](O)(C(=O)C(=O)N3CCCC[C@H]3C(=O)O[C@H](/C(C)=C/[C@@H]3CC[C@@H](O)[C@H](OC)C3)[C@H](C)[C@@H](O)C/C1=N/NC(C)=O)[C@H](C)C[C@@H]2OC [JH-FK-05] | did not reduce the presence of either cell type and was statistically indistinguishable from the vehicle treatment |  |  |  |  |  |  | 
